Results on 54 compounds are retold here after patent publication US9657009B2, “Heteroaryl substituted pyridyl compounds useful as kinase modulators” (BRISTOL-MYERS SQUIBB COMPANY, priority 2012, dated 2017).

Like-named read-outs stand apart in the source and are kept apart here.

The target in the test is IRAK4 (Homo sapiens (Human), UniProt Q9NWZ3). The experiment in a line: IRAK4 Inhibition Assay. The class given is biochemical. As for the experimental part: IRAK4 Inhibition Assay The assays were performed in U-bottom 384-well plates. […] The reaction was initiated by the combination of IRAK4 with substrates and test compounds. The reaction mixture was incubated at room temperature for 60 min. and terminated by adding 45 μL of 35 mM EDTA to each sample.
Sequence of IRAK4 (Q9NWZ3 whole entry, species assumed): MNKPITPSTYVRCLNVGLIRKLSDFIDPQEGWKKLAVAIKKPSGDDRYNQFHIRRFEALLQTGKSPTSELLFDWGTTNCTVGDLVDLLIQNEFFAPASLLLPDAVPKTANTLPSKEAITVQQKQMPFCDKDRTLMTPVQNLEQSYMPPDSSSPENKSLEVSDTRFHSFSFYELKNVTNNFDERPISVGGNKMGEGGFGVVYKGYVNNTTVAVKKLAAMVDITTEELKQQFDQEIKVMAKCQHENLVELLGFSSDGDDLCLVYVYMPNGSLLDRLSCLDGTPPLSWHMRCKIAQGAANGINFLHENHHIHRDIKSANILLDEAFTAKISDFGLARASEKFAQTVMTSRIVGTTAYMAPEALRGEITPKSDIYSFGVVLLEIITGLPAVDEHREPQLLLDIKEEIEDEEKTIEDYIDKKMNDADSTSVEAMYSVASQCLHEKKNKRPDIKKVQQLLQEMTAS

Setting [1] is: ATP 500 μM; IRAK4 0.6 nM; 60 min at room temperature; read-out: IRAK4 IC50.

`CC(C)(O)[C@H](F)CNC(=O)c1cnc(Nc2ncncc2Cl)cc1NC1CCCOC1` (stereo partly drawn) [Example 96]: under setting [1], the 50% inhibitory concentration (IC50) (commonly the concentration that gives 50% inhibition) turned out to be 11.2 nM.
`CC(C)Nc1cc(Nc2ncc(C#N)cc2Cl)ncc1C(=O)N[C@H]1CC[C@H](O)CC1` [Example 92]: the IC50 under setting [1] turned out to be 12.7 nM.
On the same count and under the same terms, as for `CC(C)Nc1cc(Nc2ncc(C#N)cc2F)ncc1C(=O)NC1CCC(O)(c2ccnn2C)CC1` (stereo not drawn) [Example 166], the figure is 8.2 nM; as for `CC(C)CCNc1cc(Nc2ncc(C#N)cc2F)ncc1C(=O)NC[C@@H](F)C(C)(C)O` [Example 141], 9.9 nM.
Turning to `CCC(O)(CC)[C@H](F)CNC(=O)c1cnc(Nc2ncc(C#N)cn2)cc1NC(C)C` [Example 117], under setting [1], the IC50 was 3.8 nM.
Still for that read-out and setting: as for `Cn1nnnc1-c1cccc(Nc2cc(Nc3ncc(C#N)cc3Cl)ncc2C(=O)NC[C@@H](F)C(C)(C)O)c1` [Example 146], the figure is 8.5 nM.
On the same count and under the same terms, to `Cc1nc(Nc2cc(NC(C)C)c(C(=O)NC[C@@H](F)C(C)(C)O)cn2)ccc1C#N` [Example 63] belongs 3.8 nM; to `Cc1cc(C#N)cnc1Nc1cc(NC(C)C)c(C(=O)NC[C@@H](F)C(C)(C)O)cn1` [Example 85], 3.6 nM; to `CC(C)(O)[C@H](F)CNC(=O)c1cnc(Nc2ncc(C#N)cc2F)cc1NC12CC3CC(CC(C3)C1)C2` [Example 119], 10.5 nM.
In the case of `CC(=O)N[C@H]1CC[C@H](NC(=O)c2cnc(Nc3ccc(C#N)cn3)cc2NC2CCOCC2F)CC1` (stereo partly drawn) [Example 11, N-((1R,4R)-4-acetamidocyclohexyl)-6-((5-cyanopyridin-2-yl)amino)-4-(((3S,4R)-3-fluorotetrahydro-2H-pyran-4-yl)amino)nicotinamide], the IC50 under setting [1] was 11.1 nM.
The same measure, in the same setting: to `Cc1cnc(Nc2cc(NC(C)C)c(C(=O)NC[C@@H](F)C(C)(C)O)cn2)nc1` [Example 113] belongs 17 nM; to `CC(=O)N1CCC(NC(=O)c2cnc(Nc3ccc(C#N)cn3)cc2NC(C)C)CC1` [Example 8, N-(1-acetyl-4-piperidinyl)-6-((5-cyano-2-pyridinyl)amino)-4-(isopropylamino)nicotinamide], 30.7 nM.
Still for that read-out and setting: to `CNC(=O)[C@H]1CC[C@H](NC(=O)c2cnc(Nc3ncc(C#N)cc3Cl)cc2NC2CC2)CC1` [Example 60] belongs 6.7 nM.
For `CC(C)(O)[C@H](F)CNC(=O)c1cnc(Nc2ncc(C#N)cc2Cl)cc1N[C@H]1CC[C@](C)(O)CC1` [Example 150], the IC50 under setting [1] was found to be 1.4 nM.
Same read-out and setting: as for `CC(C)Nc1cc(Nc2ncc(C#N)cc2Cl)ncc1C(=O)NC[C@@H](F)C(C)(C)O` [Example 12, 6-((3-chloro-5-cyano-2-pyridinyl)amino)-N-((2R)-2-fluoro-3-hydroxy-3-methylbutyl)-4-(isopropylamino)nicotinamide], the figure is 1.9 nM; as for `CCNc1cc(Nc2ccc(C#N)cn2)ncc1C(=O)NC[C@@H](F)C(C)(C)O` [Example 4, 6-((5-cyano-2-pyridinyl)amino)-4-(ethylamino)-N-((2R)-2-fluoro-3-hydroxy-3-methylbutyl)nicotinamide], 10.3 nM.
Consider `CC(C)Nc1cc(Nc2ccc(C#N)cn2)ncc1C(=O)NC[C@@H](F)C(C)(C)O` [Example 2, 6-((5-cyano-2-pyridinyl)amino)-N-((2R)-2-fluoro-3-hydroxy-3-methylbutyl)-4-(isopropylamino)nicotinamide], for which the IC50 under setting [1] was 2 nM.
On the same count and under the same terms, to `CC(C)(O)[C@H](F)CNC(=O)c1cnc(Nc2ncc(C#N)cc2F)cc1Nc1ccc(C(N)=O)cc1` [Example 142] belongs 1.2 nM.
Same read-out and setting: as for `CC(=O)N[C@H](C)CCNC(=O)c1cnc(Nc2ncc(C#N)cc2F)cc1NC(C)C` [Example 64], the figure is 3.1 nM.
On the same count and under the same terms, to `CC(C)(O)[C@H](F)CNC(=O)c1cnc(Nc2ncc(F)cc2F)cc1NC1CC1` [Example 89] belongs 14.5 nM; to `CC(C)(O)[C@H](F)CNC(=O)c1cnc(Nc2ncc(C(N)=O)cc2Cl)cc1NC1CCC(F)C1` (stereo partly drawn) [Example 38], 4.5 nM.
On to `CC(C)Nc1cc(Nc2ncncc2F)ncc1C(=O)NC[C@@H](F)C(C)(C)O` [Example 53], for which the IC50 under setting [1] turned out to be 8.1 nM.
The same measure, in the same setting: as for `CC(C)Nc1cc(Nc2ccc(C#N)c(N3CCC(O)C3)n2)ncc1C(=O)NC[C@@H](F)C(C)(C)O` (stereo in doubt) [Example 27, 6-((5-cyano-6-((3S)-3-hydroxy-1-pyrrolidinyl)-2-pyridinyl)amino)-N-((2R)-2-fluoro-3-hydroxy-3-methylbutyl)-4-(isopropylamino)nicotinamide], the figure is 6 nM; as for `CC(C)Nc1cc(Nc2ncc(Cl)cc2F)ncc1C(=O)NC[C@@H](F)C(C)(C)O` [Example 123], 3.5 nM.
For `CC(=O)N[C@H]1CC[C@H](NC(=O)c2cnc(Nc3ncc(C#N)cc3F)cc2NC2CC2)CC1` [Example 83], the IC50 under setting [1] came to 7.3 nM.
On the same count and under the same terms, to `CC(C)(O)[C@H](F)CNC(=O)c1cnc(Nc2ncc(C#N)cc2F)cc1Nc1cccc(S(N)(=O)=O)c1` [Example 128] belongs 4.6 nM.
Consider `CC(C)Nc1cc(Nc2ncc(C#N)cc2F)ncc1C(=O)N[C@H]1CC[C@H](S(C)(=O)=O)CC1` [Example 33, 6-((5-cyano-3-fluoropyridin-2-yl)amino)-4-(isopropylamino)-N-((1R,4R)-4-(methylsulfonyl)cyclohexyl)nicotinamide], for which the IC50 under setting [1] turned out to be 10 nM.
Same read-out and setting: to `CC(C)(O)[C@H](F)CNC(=O)c1cnc(Nc2ncc(C#N)cc2F)cc1NC1CCC(F)C1` (stereo partly drawn) [Example 114] belongs 2.3 nM.
On to `CC(C)(O)[C@H](F)CNC(=O)c1cnc(Nc2ccc(Cl)cn2)cc1NC1CC1` [Example 81], for which the IC50 under setting [1] is 7.1 nM.
Still for that read-out and setting: as for `CC(C)(O)[C@H](F)CNC(=O)c1cnc(Nc2ncc(C#N)cc2F)cc1Nc1cccc(CO)c1` [Example 122], the figure is 3.3 nM.
Same read-out and setting: as for `CC(C)CNc1cc(Nc2ncc(C#N)cc2Cl)ncc1C(=O)NC[C@@H](F)C(C)(C)O` [Example 155], the figure is 4.3 nM.
Turning to `CC(C)Nc1cc(Nc2ncc(C#N)cc2F)ncc1C(=O)NC1CCC(C(C)(O)C2CC2)CC1` (stereo not drawn) [Example 144], under “read-out: IRAK4 IC50; ATP 500 μM; IRAK4 0.6 nM; 60 min at room temperature”, the IC50 came to 7.8 nM.
In the case of `Cn1nnnc1-c1ccc(Nc2cc(Nc3ncc(C#N)cc3Cl)ncc2C(=O)NC[C@@H](F)C(C)(C)O)cc1` [Example 148], the half-inhibitory concentration (IC50) under setting [1] was found to be 3.4 nM.
In the case of `CCNc1cc(Nc2ncc(C#N)cc2Cl)ncc1C(=O)NC[C@@H](F)C(C)(C)O` [Example 51], the IC50 under setting [1] was determined as 4.6 nM.
Same read-out and setting: as for `COC(=O)N[C@H]1CC[C@H](NC(=O)c2cnc(Nc3ncc(C#N)cc3F)cc2NC(C)C)CC1` [Example 165], the figure is 11.3 nM; as for `CC(C)Nc1cc(Nc2ncc(C#N)cc2F)ncc1C(=O)NC1CCC(O)(c2nccs2)CC1` (stereo not drawn) [Example 167], 13 nM.
Still for that read-out and setting: to `CC(C)Nc1cc(Nc2ncc(C#N)cc2F)ncc1C(=O)N[C@H]1CC[C@H](C(C)(C)O)CC1` [Example 137] belongs 4.1 nM; to `CC(C)(O)[C@H](F)CNC(=O)c1cnc(Nc2ncc(C#N)c(N)n2)cc1NC1CC1` [Example 154], 5.2 nM; to `CNC(=O)[C@H]1CC[C@H](NC(=O)c2cnc(Nc3ncc(C#N)cc3F)cc2NC2CCOCC2)CC1` [Example 61], 8.4 nM.
On the same count and under the same terms, to `CC(C)Nc1cc(Nc2ccnc(N3CCC(F)C3)n2)ncc1C(=O)NC[C@@H](F)C(C)(C)O` (stereo partly drawn) [Example 26, N-((2R)-2-fluoro-3-hydroxy-3-methylbutyl)-6-((2-(3-fluoro-1-pyrrolidinyl)-4-pyrimidinyl)amino)-4-(isopropylamino)nicotinamide] belongs 4.8 nM.
Consider `CC(C)(O)[C@H](F)CNC(=O)c1cnc(Nc2ncc(C#N)cc2F)cc1NC1COC1` [Example 164], for which the IC50 under setting [1] was determined as 8 nM.
Take `Cc1cnc(Nc2cc(NC(C)C)c(C(=O)NC[C@@H](F)C(C)(C)O)cn2)c(F)c1` [Example 129]: the IC50 under setting [1] turned out to be 15.9 nM.
Still for that read-out and setting: as for `COC(=O)Cn1cc(Cl)c(Nc2cc(NC(C)C)c(C(=O)NC[C@@H](F)C(C)(C)O)cn2)n1` [Example 93], the figure is 17.5 nM.
Same read-out and setting: to `CNC(=O)c1cnc(Nc2ccc(C#N)cn2)cc1N[C@@H](c1ccccc1)[C@H](O)CO` [Example 1, 6-((5-cyano-2-pyridinyl)amino)-4-(((1S,2S)-2,3-dihydroxy-1-phenylpropyl)amino)-N-methylnicotinamide] belongs 53.9 nM; to `CC(C)(O)[C@H](F)CNC(=O)c1cnc(Nc2ncc(C#N)cc2Cl)cc1Nc1cccc(C(N)=O)c1` [Example 143], 2.9 nM.
Same read-out and setting: to `CC(=O)N[C@H]1CC[C@H](NC(=O)c2cnc(Nc3ncc(C#N)cc3Cl)cc2NC(C)C)CC1` [Example 15, N-((1r,4r)-4-acetamidocyclohexyl)-6-((3-chloro-5-cyanopyridin-2-yl)amino)-4-(isopropylamino)nicotinamide] belongs 5.2 nM.
In the case of `COc1cccc(Nc2cc(Nc3ncc(C#N)cc3F)ncc2C(=O)NC[C@@H](F)C(C)(C)O)c1` [Example 130], the IC50 under setting [1] was determined as 4 nM.
Still for that read-out and setting: as for `CC(C)Nc1cc(Nc2ncc(C#N)cc2F)ncc1C(=O)N[C@H]1CC[C@H](C(=O)NC2CC2)CC1` [Example 118], the figure is 4.6 nM.
On the same count and under the same terms, as for `CC(C)(O)[C@H](F)CNC(=O)c1cnc(Nc2ncc(C#N)cc2Cl)cc1NC1CCOCC1F` (stereo partly drawn) [Example 79], the figure is 3 nM; as for `CC(C)Nc1cc(Nc2ncc(C#N)cc2Cl)ncc1C(=O)NC[C@H](F)C(C)(C)O` [Example 156], 8.6 nM.
Same read-out and setting: as for `CC(C)Nc1cc(Nc2ccc(C#N)cn2)ncc1C(=O)N[C@H]1CC[C@H](C(=O)NC2CC2)CC1` [Example 6, 6-((5-cyanopyridin-2-yl)amino)-N-((1R,4R)-4-(cyclopropylcarbamoyl)cyclohexyl)-4-(isopropylamino)nicotinamide], the figure is 5.5 nM; as for `CC(C)(O)[C@H](F)CNC(=O)c1cnc(Nc2nc(OC3CCNCC3)ncc2Cl)cc1NC1CC1` [Example 42], 14.7 nM; as for `CC(C)(F)CNc1cc(Nc2ncc(C#N)cc2Cl)ncc1C(=O)NC1CCC(C(C)(C)O)CC1` (stereo not drawn) [Example 103], 5.3 nM.
Consider `CS(=O)(=O)[C@H]1CC[C@H](NC(=O)c2cnc(Nc3ncc(C#N)cc3Cl)cc2NC2CCOCC2)CC1` [Example 149], for which the IC50 under setting [1] was determined as 3 nM.
